Assay results taken from ChEMBL document CHEMBL1151043, “The synthesis and antibacterial activity of 2-para-quarternary ammoniomethylphenyl-carbapenems” (1993).

Assays:
Staphylococcus aureus [1] = assay: In vitro antibacterial activity against Staphylococcus aureus (4) relative to Thienamycin (1); assay type: functional
Klebsiella = assay: In vitro antibacterial activity against Klebsiella relative to thienamycin; assay type: functional
Escherichia coli = assay: In vitro antibacterial activity against Escherichia coli relative to thienamycin; assay type: functional
Enterococcus = assay: In vitro antibacterial activity against Enterococcus relative to thienamycin; assay type: functional
Enterobacter = assay: In vitro antibacterial activity against Enterobacter relative to thienamycin; assay type: functional
Proteus = assay: In vitro antibacterial activity against Proteus relative to thienamycin; assay type: functional, Proteus sp.
Serratia = assay: In vitro antibacterial activity against Serratia relative to thienamycin; assay type: functional
[2] = target: T1, Dipeptidase 1 (Sus scrofa) (UniProt P22412); assay: Susceptibility of compound towards porcine Dehydropeptidase-1 relative to imipenem as […] was calculated
T1 sequence (whole entry): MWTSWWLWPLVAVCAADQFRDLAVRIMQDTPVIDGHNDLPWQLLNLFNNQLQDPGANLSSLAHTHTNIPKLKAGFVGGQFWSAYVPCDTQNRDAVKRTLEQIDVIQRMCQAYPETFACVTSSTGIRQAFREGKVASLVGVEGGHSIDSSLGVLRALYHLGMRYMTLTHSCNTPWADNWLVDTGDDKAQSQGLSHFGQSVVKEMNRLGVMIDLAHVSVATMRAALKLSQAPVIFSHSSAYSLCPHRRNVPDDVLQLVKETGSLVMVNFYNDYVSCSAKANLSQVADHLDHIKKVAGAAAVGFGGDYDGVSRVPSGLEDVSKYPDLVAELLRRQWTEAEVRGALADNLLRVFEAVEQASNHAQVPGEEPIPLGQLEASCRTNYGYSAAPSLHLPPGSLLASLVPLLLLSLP

Pseudomonas = assay: In vitro antibacterial activity against Pseudomonas relative to thienamycin; assay type: functional
Staphylococcus aureus [3] = assay: In vitro antibacterial activity against Staphylococcus aureus relative to thienamycin; assay type: functional

`CO[C@@]1(NC(=O)Cc2cccs2)C(=O)N2C(C(=O)O)=C(COC(N)=O)CS[C@@H]21` [CEFOXITIN] was tested, and the Relative potency (Staphylococcus aureus [1]) was 0.03, the Relative potency (Klebsiella) was 0.04 and the Relative potency (Escherichia coli) was 0.1. The Relative potency (Enterococcus) was 0.06, the Relative potency (Enterobacter) was 0.03 and the Relative potency (Proteus) was 0.6. It also gave a Relative potency (Serratia) of 0.3.
Work on `C[C@@H](O)[C@H]1C(=O)N2C(C(=O)[O-])=C(c3ccc(C[n+]4cccc(CSCCC#N)c4)cc3)C[C@H]12` yielded a Relative potency (Staphylococcus aureus [1]) of 1, a Susceptibility [2] of 0.05 and a Relative potency (Klebsiella) of 4.6. The Relative potency (Escherichia coli) was 8, the Relative potency (Enterococcus) was 8 and the Relative potency (Pseudomonas) was 0.08. The Relative potency (Enterobacter) was 8.6, the Relative potency (Proteus) was 7 and the Relative potency (Serratia) was 14.9.
`Cc1cc[n+](Cc2ccc(C3=C(C(=O)[O-])N4C(=O)[C@H]([C@@H](C)O)[C@H]4C3)cc2)cc1` gave a Relative potency (Staphylococcus aureus [1]) of 1.1, a Susceptibility [2] of 0.06 and a Relative potency (Klebsiella) of 2.8. For the same compound, the Relative potency (Escherichia coli) was 4.6, the Relative potency (Enterococcus) was 14.9 and the Relative potency (Pseudomonas) was 0.1. For the same compound, the Relative potency (Enterobacter) was 9.2, the Relative potency (Proteus) was 12.1 and the Relative potency (Serratia) was 22.6.
`C[C@@H](O)[C@H]1C(=O)N2C(C(=O)O)=C(SCCNC=N)C[C@H]12.O` [IMIPENEM] gave a Relative potency (Staphylococcus aureus [1]) of 1.8, a Susceptibility [2] of 0.85 and a Relative potency (Klebsiella) of 1.5. It also gave a Relative potency (Escherichia coli) of 1.6, a Relative potency (Enterococcus) of 1.5 and a Relative potency (Pseudomonas) of 4. For the same compound, the Relative potency (Enterobacter) was 1.8, the Relative potency (Proteus) was 1.6 and the Relative potency (Serratia) was 1.8.
In the case of `C[C@@H](O)[C@H]1C(=O)N2C(C(=O)[O-])=C(c3ccc(C[n+]4cccc(C#N)c4)cc3)C[C@H]12`, the Susceptibility [2] is reported as 0.06, the Relative potency (Klebsiella) is reported as 2.1 and the Relative potency (Escherichia coli) is reported as 4. For the same compound, the Relative potency (Enterococcus) was 10.6, the Relative potency (Staphylococcus aureus [3]) was 0.9 and the Relative potency (Pseudomonas) was 0.1. The Relative potency (Enterobacter) was 9.8, the Relative potency (Proteus) was 4.6 and the Relative potency (Serratia) was 11.3.
Compound `C[C@@H](O)[C@H]1C(=O)N2C(C(=O)[O-])=C(c3ccc(C[n+]4cc(N)cc5ccccc54)cc3)C[C@H]12` has a Susceptibility [2] of 0.09, a Relative potency (Klebsiella) of 0.9 and a Relative potency (Escherichia coli) of 3.7. The Relative potency (Enterococcus) was 12.1, the Relative potency (Staphylococcus aureus [3]) was 1.9 and the Relative potency (Pseudomonas) was 0.05. The Relative potency (Enterobacter) was 3.7, the Relative potency (Proteus) was 9.2 and the Relative potency (Serratia) was 9.2.
For `C[C@@H](O)[C@H]1C(=O)N2C(C(=O)[O-])=C(c3ccc(C[n+]4cccc(N)c4)cc3)C[C@H]12`, the Susceptibility [2] was 0.09, the Relative potency (Klebsiella) was 4.3 and the Relative potency (Escherichia coli) was 7.5. The Relative potency (Enterococcus) was 17.1, the Relative potency (Staphylococcus aureus [3]) was 2.3 and the Relative potency (Pseudomonas) was 0.1. For the same compound, the Relative potency (Enterobacter) was 11.3, the Relative potency (Proteus) was 14.9 and the Relative potency (Serratia) was 22.6.
`C[C@@H](O)[C@H]1C(=O)N2C(C(=O)[O-])=C(c3ccc(C[N+]4(C)CCCC4)cc3)C[C@H]12` showed a Susceptibility [2] of 0.03, a Relative potency (Klebsiella) of 2.6 and a Relative potency (Escherichia coli) of 3.2. It also gave a Relative potency (Enterococcus) of 13.9, a Relative potency (Staphylococcus aureus [3]) of 0.9 and a Relative potency (Pseudomonas) of 0.03. The Relative potency (Enterobacter) was 7.5, the Relative potency (Proteus) was 8.6 and the Relative potency (Serratia) was 26.
`C[C@@H](O)[C@H]1C(=O)N2C(C(=O)[O-])=C(c3ccc(C[n+]4ccc5ccccc5c4N)cc3)C[C@H]12` gave a Susceptibility [2] of 0.14, a Relative potency (Klebsiella) of 0.7 and a Relative potency (Escherichia coli) of 2.7. The Relative potency (Enterococcus) was 9.2, the Relative potency (Staphylococcus aureus [3]) was 1.3 and the Relative potency (Pseudomonas) was 0.05. For the same compound, the Relative potency (Enterobacter) was 2.3, the Relative potency (Proteus) was 3.7 and the Relative potency (Serratia) was 3.7.
`CSc1ccc[n+](Cc2ccc(C3=C(C(=O)[O-])N4C(=O)[C@H]([C@@H](C)O)[C@H]4C3)cc2)c1` was tested, and the Relative potency (Staphylococcus aureus [1]) was 2.6, the Susceptibility [2] was 0.06 and the Relative potency (Klebsiella) was 3.7. It also gave a Relative potency (Escherichia coli) of 4.3, a Relative potency (Enterococcus) of 10.6 and a Relative potency (Pseudomonas) of 0.08. For the same compound, the Relative potency (Enterobacter) was 11.3, the Relative potency (Proteus) was 9.2 and the Relative potency (Serratia) was 19.7.
Compound `C[C@@H](O)[C@H]1C(=O)N2C(C(=O)[O-])=C(c3ccc(C[n+]4ccc(CS(=O)(=O)[O-])cc4)cc3)C[C@H]12.[K+]` has a Relative potency (Staphylococcus aureus [1]) of 0.5, a Susceptibility [2] of 0.06 and a Relative potency (Klebsiella) of 1.6. The Relative potency (Escherichia coli) was 6.5, the Relative potency (Enterococcus) was 3.5 and the Relative potency (Pseudomonas) was 0.04. For the same compound, the Relative potency (Enterobacter) was 9.2, the Relative potency (Proteus) was 9.8 and the Relative potency (Serratia) was 9.8.
`C[C@@H](O)[C@H]1C(=O)N2C(C(=O)[O-])=C(c3ccc(C[n+]4ccccc4)cc3)C[C@H]12` showed a Susceptibility [2] of 0.07, a Relative potency (Klebsiella) of 4.3 and a Relative potency (Escherichia coli) of 3.5. The Relative potency (Enterococcus) was 13, the Relative potency (Staphylococcus aureus [3]) was 1.3 and the Relative potency (Pseudomonas) was 0.1. The Relative potency (Enterobacter) was 7, the Relative potency (Proteus) was 9.8 and the Relative potency (Serratia) was 9.8.
In the case of `C[C@@H](O)[C@H]1C(=O)N2C(C(=O)O)=C(c3ccc(CN4CCN(C)CC4)cc3)C[C@H]12`, the Susceptibility [2] is reported as 0.12, the Relative potency (Klebsiella) is reported as 1 and the Relative potency (Escherichia coli) is reported as 3. For the same compound, the Relative potency (Enterococcus) was 5.7, the Relative potency (Staphylococcus aureus [3]) was 0.4 and the Relative potency (Pseudomonas) was 0.04. The Relative potency (Enterobacter) was 4.9, the Relative potency (Proteus) was 9.2 and the Relative potency (Serratia) was 7.
`CSCc1ccc[n+](Cc2ccc(C3=C(C(=O)[O-])N4C(=O)[C@H]([C@@H](C)O)[C@H]4C3)cc2)c1` gave a Relative potency (Staphylococcus aureus [1]) of 1.9, a Susceptibility [2] of 0.05 and a Relative potency (Klebsiella) of 3.7. It also gave a Relative potency (Escherichia coli) of 6.1, a Relative potency (Enterococcus) of 19.7 and a Relative potency (Pseudomonas) of 0.08. For the same compound, the Relative potency (Enterobacter) was 10.6, the Relative potency (Proteus) was 6.5 and the Relative potency (Serratia) was 29.9.
For `C[C@@H](O)[C@H]1C(=O)N2C(C(=O)O)=C(c3ccc(CN4CCSCC4)cc3)C[C@H]12`, the Susceptibility [2] was 0.13, the Relative potency (Klebsiella) was 1.3 and the Relative potency (Escherichia coli) was 2.3. It also gave a Relative potency (Enterococcus) of 9.2, a Relative potency (Staphylococcus aureus [3]) of 0.9 and a Relative potency (Pseudomonas) of 0.03. The Relative potency (Enterobacter) was 3.2, the Relative potency (Proteus) was 7 and the Relative potency (Serratia) was 7.5.
`C[C@@H](O)[C@H]1C(=O)N2C(C(=O)[O-])=C(c3ccc(C[n+]4ccc(N5CCCCC5)cc4)cc3)C[C@H]12` was tested, and the Susceptibility [2] was 0.11, the Relative potency (Klebsiella) was 0.5 and the Relative potency (Escherichia coli) was 2.8. For the same compound, the Relative potency (Enterococcus) was 5.7, the Relative potency (Staphylococcus aureus [3]) was 1.1 and the Relative potency (Pseudomonas) was 0.05. The Relative potency (Enterobacter) was 2.5, the Relative potency (Proteus) was 4 and the Relative potency (Serratia) was 2.8.
`C[C@@H](O)[C@H]1C(=O)N2C(C(=O)[O-])=C(c3ccc(C[n+]4ccc(CN)cc4)cc3)C[C@H]12` was tested, and the Relative potency (Staphylococcus aureus [1]) was 0.5, the Susceptibility [2] was 0.04 and the Relative potency (Klebsiella) was 0.8. For the same compound, the Relative potency (Escherichia coli) was 1.7, the Relative potency (Enterococcus) was 7 and the Relative potency (Pseudomonas) was 0.05. It also gave a Relative potency (Enterobacter) of 2.6, a Relative potency (Proteus) of 4.3 and a Relative potency (Serratia) of 6.1.
With `C[C@@H](O)[C@H]1C(=O)N2C(C(=O)O)=C(c3ccc(CN4CCCCC4)cc3)C[C@H]12` the Susceptibility [2] was 0.03, the Relative potency (Klebsiella) was 1.4 and the Relative potency (Escherichia coli) was 2.5. For the same compound, the Relative potency (Enterococcus) was 6.1, the Relative potency (Staphylococcus aureus [3]) was 0.6 and the Relative potency (Pseudomonas) was 0.05. The Relative potency (Enterobacter) was 4, the Relative potency (Proteus) was 8.6 and the Relative potency (Serratia) was 5.7.
Work on `C[C@@H](O)[C@H]1C(=O)N2C(C(=O)[O-])=C(c3ccc(C[n+]4cccc(C(=O)N(C)C)c4)cc3)C[C@H]12` yielded a Relative potency (Staphylococcus aureus [1]) of 0.3, a Susceptibility [2] of 0.05 and a Relative potency (Klebsiella) of 1.1. For the same compound, the Relative potency (Escherichia coli) was 2.3, the Relative potency (Enterococcus) was 5.7 and the Relative potency (Pseudomonas) was 0.04. The Relative potency (Enterobacter) was 3.5, the Relative potency (Proteus) was 4.6 and the Relative potency (Serratia) was 4.
`C[C@@H](O)[C@H]1C(=O)N2C(C(=O)[O-])=C(c3ccc(C[n+]4cccc(C(F)(F)F)c4)cc3)C[C@H]12` showed a Susceptibility [2] of 0.04, a Relative potency (Klebsiella) of 2.8 and a Relative potency (Escherichia coli) of 3. It also gave a Relative potency (Enterococcus) of 8, a Relative potency (Staphylococcus aureus [3]) of 1.1 and a Relative potency (Pseudomonas) of 0.05. It also gave a Relative potency (Enterobacter) of 5.7, a Relative potency (Proteus) of 3.7 and a Relative potency (Serratia) of 13.
For `C[C@@H](O)[C@H]1C(=O)N2C(C(=O)[O-])=C(c3ccc(C[n+]4cccc(C(=O)[O-])c4)cc3)C[C@H]12.[K+]`, the Relative potency (Staphylococcus aureus [1]) was 0.6, the Relative potency (Klebsiella) was 2 and the Relative potency (Escherichia coli) was 6.1. It also gave a Relative potency (Enterococcus) of 5.3, a Relative potency (Pseudomonas) of 0.08 and a Relative potency (Enterobacter) of 12.1. The Relative potency (Proteus) was 27.9 and the Relative potency (Serratia) was 27.9.
In the case of `C[C@@H](O)[C@H]1C(=O)N2C(C(=O)[O-])=C(c3ccc(C[n+]4ccc5ccccc5c4)cc3)C[C@H]12`, the Susceptibility [2] is reported as 0.08, the Relative potency (Klebsiella) is reported as 2 and the Relative potency (Escherichia coli) is reported as 7.5. It also gave a Relative potency (Enterococcus) of 24.3, a Relative potency (Staphylococcus aureus [3]) of 1.3 and a Relative potency (Pseudomonas) of 0.07. It also gave a Relative potency (Enterobacter) of 11.3, a Relative potency (Proteus) of 17.1 and a Relative potency (Serratia) of 36.8.
`C[C@@H](O)[C@H]1C(=O)N2C(C(=O)[O-])=C(c3ccc(C[n+]4ccc(N5CCOCC5)cc4)cc3)C[C@H]12` was tested, and the Susceptibility [2] was 0.06, the Relative potency (Klebsiella) was 2.1 and the Relative potency (Escherichia coli) was 4. It also gave a Relative potency (Enterococcus) of 4.6, a Relative potency (Staphylococcus aureus [3]) of 0.5 and a Relative potency (Pseudomonas) of 0.1. It also gave a Relative potency (Enterobacter) of 9.8, a Relative potency (Proteus) of 4.6 and a Relative potency (Serratia) of 11.3.
